Measurements as given in ChEMBL document CHEMBL3885881, “DrugMatrix”.

Species: Rattus norvegicus
Assay: DrugMatrix - Regimen: Daily Repeat
Assay type: toxicity, organism-based, Sprague-Dawley
Parameters: regimen Daily Repeat, gender Male, age 6-8 weeks
Details: in vivo, po, route oral GAVAGE, vehicle .5 % CMC; for ABSOLUTE BASOPHIL / ABSOLUTE EOSINOPHIL / ABSOLUTE LYMPHOCYTE / ABSOLUTE MONOCYTE / ABSOLUTE SEGMENTED NEUTROPHIL / BASOPHIL / EOSINOPHIL / ERYTHROCYTE COUNT / HEMATOCRIT / HEMOGLOBIN / LEUKOCYTE COUNT / LYMPHOCYTE / MEAN CORPUSCULAR HEMOGLOBIN / MEAN CORPUSCULAR HEMOGLOBIN CONCENTRATION / MEAN CORPUSCULAR VOLUME / MONOCYTE / NEUTROPHIL / NUCLEATED RED BLOOD CELLS / PLATELET COUNT: tissue Blood; for ALANINE AMINOTRANSFERASE / ALBUMIN / ALKALINE PHOSPHATASE / ASPARTATE AMINOTRANSFERASE / BLOOD UREA NITROGEN / CARBON DIOXIDE / CHLORIDE / CHOLESTEROL / CREATINE PHOSPHOKINASE / CREATININE / GLUCOSE / LACTATE DEHYDROGENASE / LIPASE / PHOSPHORUS / POTASSIUM / SODIUM / TOTAL BILIRUBIN / TOTAL PROTEIN / URIC ACID: tissue Plasma
[1] = 0 mg/kg, 72 h, dose level Control, time 3 day
[2] = 0 mg/kg, 120 h, dose level Control, time 5 day
[3] = 580 mg/kg, 72 h, dose level High, time 3 day

Structure (SMILES): CN1C(=O)COc2c(C(=O)NC3CN4CCC3CC4)cc(Cl)cc21 (centres undefined) [AZASETRON]
- ABSOLUTE BASOPHIL [1]: 0 CELLS/uL
- ABSOLUTE EOSINOPHIL [1]: 47.67 CELLS/uL
- ABSOLUTE LYMPHOCYTE [1]: 15937.67 CELLS/uL
- ABSOLUTE MONOCYTE [1]: 138.33 CELLS/uL
- ABSOLUTE SEGMENTED NEUTROPHIL [1]: 1443 CELLS/uL
- BASOPHIL [1]: 0%
- EOSINOPHIL [1]: 0.33%
- ERYTHROCYTE COUNT [1]: 5.45 x10E6/uL
- HEMATOCRIT [1]: 34.43%
- HEMOGLOBIN [1]: 13.38 G/DL
- LEUKOCYTE COUNT [1]: 17.57 x10E3/uL
- LYMPHOCYTE [1]: 90.33%
- MEAN CORPUSCULAR HEMOGLOBIN [1]: 24.6 pg
- MEAN CORPUSCULAR HEMOGLOBIN CONCENTRATION [1]: 38.88 G/DL
- MEAN CORPUSCULAR VOLUME [1]: 63.27 fL
- MONOCYTE [1]: 0.83%
- NEUTROPHIL [1]: 8.5%
- NUCLEATED RED BLOOD CELLS [1]: 0 /100WBC
- PLATELET COUNT [1]: 1298 x10E3/uL
- ALANINE AMINOTRANSFERASE [1]: 47.67 u/L
- ALBUMIN [1]: 4.18 G/DL
- ALKALINE PHOSPHATASE [1]: 398.5 u/L
- ASPARTATE AMINOTRANSFERASE [1]: 93.17 u/L
- BLOOD UREA NITROGEN [1]: 16 mg/dL
- CARBON DIOXIDE [1]: 29.17 mmol/L
- CHLORIDE [1]: 98.17 MEQ/L
- CHOLESTEROL [1]: 68.83 mg/dL
- CREATINE PHOSPHOKINASE [1]: 467.33 u/L
- CREATININE [1]: 0.14 mg/dL
- GLUCOSE [1]: 151.67 mg/dL
- LACTATE DEHYDROGENASE [1]: 597.5 u/L
- LIPASE [1]: 9.33 u/L
- PHOSPHORUS [1]: 11.97 mg/dL
- POTASSIUM [1]: 6.43 MEQ/L
- SODIUM [1]: 140.68 MEQ/L
- TOTAL BILIRUBIN [1]: 0.18 mg/dL
- TOTAL PROTEIN [1]: 5.82 G/DL
- URIC ACID [1]: 1.48 mg/dL
- ABSOLUTE BASOPHIL [2]: 0 CELLS/uL
- ABSOLUTE EOSINOPHIL [2]: 31 CELLS/uL
- ABSOLUTE LYMPHOCYTE [2]: 14327.83 CELLS/uL
- ABSOLUTE MONOCYTE [2]: 102.83 CELLS/uL
- ABSOLUTE SEGMENTED NEUTROPHIL [2]: 1321.67 CELLS/uL
- BASOPHIL [2]: 0%
- EOSINOPHIL [2]: 0.17%
- ERYTHROCYTE COUNT [2]: 5.79 x10E6/uL
- HEMATOCRIT [2]: 36.1%
- HEMOGLOBIN [2]: 14.15 G/DL
- LEUKOCYTE COUNT [2]: 15.78 x10E3/uL
- LYMPHOCYTE [2]: 90.5%
- MEAN CORPUSCULAR HEMOGLOBIN [2]: 24.48 pg
- MEAN CORPUSCULAR HEMOGLOBIN CONCENTRATION [2]: 39.22 G/DL
- MEAN CORPUSCULAR VOLUME [2]: 62.4 fL
- MONOCYTE [2]: 0.67%
- NEUTROPHIL [2]: 8.67%
- NUCLEATED RED BLOOD CELLS [2]: 0.17 /100WBC
- PLATELET COUNT [2]: 1211.67 x10E3/uL
- ALANINE AMINOTRANSFERASE [2]: 49 u/L
- ALBUMIN [2]: 4.27 G/DL
- ALKALINE PHOSPHATASE [2]: 356.67 u/L
- ASPARTATE AMINOTRANSFERASE [2]: 90.17 u/L
- BLOOD UREA NITROGEN [2]: 20.5 mg/dL
- CARBON DIOXIDE [2]: 29.17 mmol/L
- CHLORIDE [2]: 98 MEQ/L
- CHOLESTEROL [2]: 69.83 mg/dL
- CREATINE PHOSPHOKINASE [2]: 312 u/L
- CREATININE [2]: 0.21 mg/dL
- GLUCOSE [2]: 149.83 mg/dL
- LACTATE DEHYDROGENASE [2]: 322 u/L
- LIPASE [2]: 10 u/L
- PHOSPHORUS [2]: 12 mg/dL
- POTASSIUM [2]: 6.75 MEQ/L
- SODIUM [2]: 142.8 MEQ/L
- TOTAL BILIRUBIN [2]: 0.17 mg/dL
- TOTAL PROTEIN [2]: 6.1 G/DL
- URIC ACID [2]: 1.68 mg/dL
- ABSOLUTE BASOPHIL [3]: 0 CELLS/uL
- ABSOLUTE EOSINOPHIL [3]: 0 CELLS/uL
- ABSOLUTE LYMPHOCYTE [3]: 13751.33 CELLS/uL
- ABSOLUTE MONOCYTE [3]: 160.33 CELLS/uL
- ABSOLUTE SEGMENTED NEUTROPHIL [3]: 1088.33 CELLS/uL
- BASOPHIL [3]: 0%
- EOSINOPHIL [3]: 0%
- ERYTHROCYTE COUNT [3]: 6.01 x10E6/uL
- HEMATOCRIT [3]: 37.33%
- HEMOGLOBIN [3]: 14.57 G/DL
- LEUKOCYTE COUNT [3]: 15 x10E3/uL
- LYMPHOCYTE [3]: 91.67%
- MEAN CORPUSCULAR HEMOGLOBIN [3]: 24.27 pg
- MEAN CORPUSCULAR HEMOGLOBIN CONCENTRATION [3]: 39.03 G/DL
- MEAN CORPUSCULAR VOLUME [3]: 62.13 fL
- MONOCYTE [3]: 1%
- NEUTROPHIL [3]: 7.33%
- NUCLEATED RED BLOOD CELLS [3]: 0 /100WBC
- PLATELET COUNT [3]: 1244 x10E3/uL
- ALANINE AMINOTRANSFERASE [3]: 64.33 u/L
- ALBUMIN [3]: 4.27 G/DL
- ALKALINE PHOSPHATASE [3]: 372.33 u/L
- ASPARTATE AMINOTRANSFERASE [3]: 96.67 u/L
- BLOOD UREA NITROGEN [3]: 17.33 mg/dL
- CARBON DIOXIDE [3]: 26.67 mmol/L
- CHLORIDE [3]: 99.33 MEQ/L
- CHOLESTEROL [3]: 72.67 mg/dL
- CREATINE PHOSPHOKINASE [3]: 527.67 u/L
- CREATININE [3]: 0.25 mg/dL
- GLUCOSE [3]: 150 mg/dL
- LACTATE DEHYDROGENASE [3]: 877 u/L
- LIPASE [3]: 9.67 u/L
- PHOSPHORUS [3]: 11.3 mg/dL
- POTASSIUM [3]: 6.57 MEQ/L
- SODIUM [3]: 141.63 MEQ/L
- TOTAL BILIRUBIN [3]: 0.23 mg/dL
- TOTAL PROTEIN [3]: 6 G/DL
- URIC ACID [3]: 1.73 mg/dL
